Data taken from PMC12259270, “Sensory neuron–expressed FGF13 controls nociceptive signaling in diabetic neuropathy models” (The Journal of Clinical Investigation, 2025).
“And” between values parts separate entries of the source, which are not always exact repeats. Identical values can stand only once. Residues, ends and D or L forms follow the SMILES beside them. *: point of attachment. NHPh = c1ccc(N*)cc1

Target: T1, human Nav1.7 (Homo sapiens, UniProt Q15858)
T1 construct: expressed in transfected cells; host or cells: HEK293 stably expressing human Nav1.7
Assay: Whole-cell patch-clamp, HEK293 cells stably expressing human Nav1.7 with GFP or FGF13-GFP
Format: cell-based
Set-up: Nav1.7 repriming time course, Mean / Figure 4I, Mean versus Time (ms): unit not given here
Conditions: for Activation / LTI, 2nd Pulse / LTI, 3rd Pulse / LTI, 4th Pulse / Peak Density / Steady-State inactivation / Tau (τ): HEK293 Nav1.7
Description: Whole-cell patch clamp electrophysiology
HEK293-Nav1.7 cells, HEK293 stably expressing human Nav1.6 (HEK-Nav1.6), HEK293 stably expressing human Nav1.5 (HEK-Nav1.5), human hIPSC-derived sensory neurons (RealDRGTM from Anatomic Incorporated 1020F1-1M) and donor-derived DRG neurons were plated at low density on glass coverslips and processed for whole-cell patch clamp electrophysiology in voltage-clamp and/or current clamp mode. Whole-cell patch electrophysiological experiments were conducted following previously published studies (26). Current densities were obtained by dividing INa amplitude by membrane capacitance. Current –voltage relationships were generated by plotting current density as a function of the […]. Conductance (G Na) was calculated by the […]
where INa is the current amplitude at voltage Vm, and Erev is the Na+ reversal potential.
Activation curves were derived by plotting normalized GNa as a function of test potential and fitted using […]
Where GNa,Max is the maximum conductance, Va is the membrane potential of half-maximal activation, Em is the membrane voltage and k is the slope factor. For steady -state inactivation, normalized current amplitude (INa/INa,Max) at the test potential was plotted as a function of prepulse potential (Vm) and fitted using the […]
Where Vh is the potential of half-maximal inactivation, E m is the membrane voltage, and k is the slope factor.
Transient INa inactivation decay was estimated with the standard exponential equation. Inactivation time constant (tau, τ) was fitted with the following equation: […]
where I(t) is the amplitude of the current at time t and Iss is the steady-state current during a single voltage-step.
The goodness of fitting was determined by correlation coefficient (R), and the cutoff of R was set at 0.85. To observe effects on long-term inactivation (LTI), a four-step protocol was employed during which cells were subjected to four 0 mV, 20 ms depolarization pulses separated by −90 mV, 40 ms recovery intervals. To control for various cell sizes, the current densities were calculated by dividing INa peak current amplitude/membrane capacitance (Cm). To represent the fraction of channels entering into LTI, the peak INa observed during depolarization cycles 2-4 was normalized to the peak INa observed during depolarization cycle 1 (INa/INa,Cycle 1) and plotted as a function of the depolarization cycle.
The cumulative (frequency-dependent) use-dependency was determined by applying 20 pulses with a depolarization to −10 mV (50 ms duration) and 50 ms recovery intervals with a train of 20 pulses at 10 Hz from a holding potential at -70 mV. The current pulses were normalized to the first reco rded pulse and the currents at the 2nd to 20th pulses were compared. The same train was used to record use-dependency at various frequencies […]
The rate of recovery from inactivation was recorded at -80 mV with a standard repriming voltage protocol.
The cells were prepulsed to -20 mV for 20 ms to inactivate all currents, then driven back to the recovery potential (Vrec) for increasing recovery durations before the test pulse to 0 mV. The maximum pulse rate was 0.5 Hz. The […]
follows previous publications (16). The time constants were estimated from single exponential decay to time courses measured at recovery potentials ranging from -140 to -60 mV with the protocol as mentioned above.
Electrophysiological Recordings
HEK293 cells: Electrophysiological recordings in HEK293 stably expressing Nav1.7 (HEK-Nav1.7), Nav1.5 (HEK-Nav1.5) or Nav1.6 (HEK-Nav1.6) were performed at room temperature using a MultiClamp 700B or an Axopatch 200B amplifier (Molecular Devices) after incubating coverslips for 60 minutes either with 0.1% DMSO or 50 μM PW164 or ZL192 in the extracellular solution. The composition of recording solutions consisted of the […]
following salts: extracellular (mM): 140 NaCl, 3 KCl, 1 MgCl2, 1 CaCl2, 10 HEPES, 10 glucose, pH 7.3; […]
intracellular (mM): 130 CH3O3 SCs, 1 EGTA, 10 NaCl, 10 HEPES, pH 7.3. […]

[1] = Nav1.7 + FGF13-GFP, Steps 1, N 10
[2] = Nav1.7 + FGF13-GFP, Steps 3, N 10

T1 sequence (Q92913 1-192 partner limits assumed): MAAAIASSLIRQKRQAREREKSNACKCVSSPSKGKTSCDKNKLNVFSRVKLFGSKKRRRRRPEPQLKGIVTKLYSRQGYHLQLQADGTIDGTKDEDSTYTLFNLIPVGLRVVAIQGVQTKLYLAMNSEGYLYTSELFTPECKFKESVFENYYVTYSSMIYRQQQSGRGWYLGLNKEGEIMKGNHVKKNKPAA
T1 sequence (Q15858 1-1977 isoform Q15858-3): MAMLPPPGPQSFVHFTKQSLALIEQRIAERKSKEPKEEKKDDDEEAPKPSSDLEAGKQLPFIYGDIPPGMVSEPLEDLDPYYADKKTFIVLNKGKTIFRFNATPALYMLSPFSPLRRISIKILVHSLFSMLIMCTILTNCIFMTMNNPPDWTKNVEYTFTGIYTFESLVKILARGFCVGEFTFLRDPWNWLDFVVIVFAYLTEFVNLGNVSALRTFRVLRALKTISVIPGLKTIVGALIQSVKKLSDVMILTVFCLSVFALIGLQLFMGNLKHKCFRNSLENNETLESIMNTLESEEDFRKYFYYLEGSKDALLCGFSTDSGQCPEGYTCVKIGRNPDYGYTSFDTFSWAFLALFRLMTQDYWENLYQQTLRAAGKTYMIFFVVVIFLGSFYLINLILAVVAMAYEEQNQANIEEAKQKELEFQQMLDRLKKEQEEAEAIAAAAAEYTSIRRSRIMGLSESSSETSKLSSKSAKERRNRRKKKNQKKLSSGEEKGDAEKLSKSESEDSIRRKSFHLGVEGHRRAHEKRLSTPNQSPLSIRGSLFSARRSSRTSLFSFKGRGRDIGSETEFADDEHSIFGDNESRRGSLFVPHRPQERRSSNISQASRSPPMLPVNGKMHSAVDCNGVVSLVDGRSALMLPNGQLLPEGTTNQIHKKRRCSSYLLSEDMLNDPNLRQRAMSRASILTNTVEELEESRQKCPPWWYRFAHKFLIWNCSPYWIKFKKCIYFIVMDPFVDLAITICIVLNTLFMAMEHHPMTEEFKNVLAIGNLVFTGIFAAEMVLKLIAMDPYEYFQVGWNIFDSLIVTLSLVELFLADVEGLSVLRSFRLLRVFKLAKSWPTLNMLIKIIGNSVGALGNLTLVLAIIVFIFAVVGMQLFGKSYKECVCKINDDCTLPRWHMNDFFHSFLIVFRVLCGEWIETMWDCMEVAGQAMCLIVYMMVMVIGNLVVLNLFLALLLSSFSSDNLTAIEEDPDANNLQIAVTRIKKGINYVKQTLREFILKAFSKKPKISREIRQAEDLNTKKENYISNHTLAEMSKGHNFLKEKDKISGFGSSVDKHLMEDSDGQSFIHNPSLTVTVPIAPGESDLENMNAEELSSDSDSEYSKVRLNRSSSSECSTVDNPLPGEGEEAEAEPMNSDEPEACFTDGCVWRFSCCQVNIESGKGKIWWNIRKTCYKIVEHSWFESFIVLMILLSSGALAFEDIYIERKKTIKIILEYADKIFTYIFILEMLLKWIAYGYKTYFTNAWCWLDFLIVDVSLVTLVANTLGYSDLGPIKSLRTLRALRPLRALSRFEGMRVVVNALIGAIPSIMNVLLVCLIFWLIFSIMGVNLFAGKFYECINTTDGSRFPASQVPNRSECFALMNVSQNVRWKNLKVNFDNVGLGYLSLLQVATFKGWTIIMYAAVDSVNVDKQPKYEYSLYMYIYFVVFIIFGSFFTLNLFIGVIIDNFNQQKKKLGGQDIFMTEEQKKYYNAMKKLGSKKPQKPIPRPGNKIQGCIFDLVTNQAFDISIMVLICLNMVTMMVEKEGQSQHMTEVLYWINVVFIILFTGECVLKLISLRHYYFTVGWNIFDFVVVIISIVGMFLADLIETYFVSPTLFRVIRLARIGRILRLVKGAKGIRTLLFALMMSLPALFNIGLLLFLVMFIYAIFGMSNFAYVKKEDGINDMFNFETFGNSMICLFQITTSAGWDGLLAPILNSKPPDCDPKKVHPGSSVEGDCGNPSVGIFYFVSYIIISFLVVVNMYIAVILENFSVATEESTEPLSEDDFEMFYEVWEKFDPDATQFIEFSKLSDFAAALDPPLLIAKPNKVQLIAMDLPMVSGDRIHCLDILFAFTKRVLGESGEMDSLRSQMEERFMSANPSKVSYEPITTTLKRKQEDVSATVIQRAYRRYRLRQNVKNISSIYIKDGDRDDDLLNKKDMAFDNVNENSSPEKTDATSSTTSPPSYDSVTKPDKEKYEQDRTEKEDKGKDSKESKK

CC(=O)N[C@@H](Cc1ccccc1)C(=O)N[C@@H](CC(C)C)C(=O)N1CCC[C@H]1C(=O)N[C@@H](CCCCN)C(=O)Nc1ccccc1 [ZL192] (Ac-FLPK-NHPh)
Activation (FGF13-GFP + ZL192 50 μM): −26.0 ± 0.8 mV
LTI, 2nd Pulse (FGF13-GFP + ZL192 50 μM): −69.72 ± 5.21 % maximal Na+ current
LTI, 3rd Pulse (FGF13-GFP + ZL192 50 μM): −60.33 ± 5.60 % maximal Na+ current
LTI, 4th Pulse (FGF13-GFP + ZL192 50 μM): −59.34 ± 4.68 % maximal Na+ current
Peak Density (FGF13-GFP + ZL192 50 μM): −139.7 ± 12.3 pA/pF
Steady-State inactivation (FGF13-GFP + ZL192 50 μM): −66.7 ± 2.6 mV
Tau (τ) (FGF13-GFP + ZL192 50 μM): 1.2 ± 0.06 ms
Activation (GFP + ZL192 50 μM): −25.7 ± 0.8 mV
LTI, 2nd Pulse (GFP + ZL192 50 μM): −67.94 ± 3.77 % maximal Na+ current
LTI, 3rd Pulse (GFP + ZL192 50 μM): −62.35 ± 57.35 % maximal Na+ current
LTI, 4th Pulse (GFP + ZL192 50 μM): −60.93 ± 3.90 % maximal Na+ current
Peak Density (GFP + ZL192 50 μM): −73.5 ± 8.1 pA/pF
Steady-State inactivation (GFP + ZL192 50 μM): −82.8 ± 1.1 mV
Tau (τ) (GFP + ZL192 50 μM): 1.3 ± 0.1 ms
EC50 (HEK-Nav1.7 coexpressing FGF13, Fig 4D, read-out: EC50, potentiation of INa): 8.5 ± 0.9 µM
Current density pA/pF (Figure 4D), individual cells (Nav1.7 + FGF13-GFP): -168.188 pA/pF and -158.115 pA/pF and -119.568 pA/pF and -127.538 pA/pF and -145.958 pA/pF and -170.525 pA/pF and -75.8621 pA/pF and -128.86 pA/pF and -208.183 pA/pF and -94.6899 pA/pF
pA/pF Dose response (Figure 4D), individual cells (Nav1.7 + FGF13-GFP, Log (conc(M) -4)): -162.222 pA/pF and -131.216 pA/pF and -115.311 pA/pF and -179.051 pA/pF and -125.271 pA/pF and -135.274 pA/pF
pA/pF Dose response (Figure 4D), individual cells (Nav1.7 + FGF13-GFP, Log (conc(M) -4.12)): -133.535 pA/pF and -142.569 pA/pF and -148.889 pA/pF
pA/pF Dose response (Figure 4D), individual cells (Nav1.7 + FGF13-GFP, Log (conc(M) -4.22)): -94.6899 pA/pF and -168.188 pA/pF and -158.115 pA/pF and -119.568 pA/pF and -127.538 pA/pF and -145.958 pA/pF and -170.525 pA/pF and -75.8621 pA/pF and -128.86 pA/pF and -208.183 pA/pF
pA/pF Dose response (Figure 4D), individual cells (Nav1.7 + FGF13-GFP, Log (conc(M) -4.6)): -142.47 pA/pF and -131.114 pA/pF and -147.185 pA/pF and -132.461 pA/pF and -139.907 pA/pF and -150.76 pA/pF and -140.066 pA/pF
pA/pF Dose response (Figure 4D), individual cells (Nav1.7 + FGF13-GFP, Log (conc(M) -4.82)): -154.895 pA/pF and -103.016 pA/pF and -135.94 pA/pF and -128.008 pA/pF and -135.582 pA/pF and -110.637 pA/pF and -137.656 pA/pF (2×)
pA/pF Dose response (Figure 4D), individual cells (Nav1.7 + FGF13-GFP, Log (conc(M) -5)): -99.4552 pA/pF and -132.222 pA/pF and -121.216 pA/pF and -111.311 pA/pF and -169.051 pA/pF and -139.271 pA/pF and -105.274 pA/pF
pA/pF Dose response (Figure 4D), individual cells (Nav1.7 + FGF13-GFP, Log (conc(M) -5.5)): -112.13 pA/pF and -130.035 pA/pF and -105.009 pA/pF and -123.737 pA/pF and -114.192 pA/pF and -90.2752 pA/pF and -117.316 pA/pF
pA/pF Dose response (Figure 4D), individual cells (Nav1.7 + FGF13-GFP, Log (conc(M) -6)): -149.506 pA/pF and -142.879 pA/pF and -66.945 pA/pF and -161.516 pA/pF and -59.6444 pA/pF and -67.5751 pA/pF and -70.501 pA/pF and -91.4611 pA/pF and -141.024 pA/pF and -68.796 pA/pF and -57.939 pA/pF
Figure 4G, Mean per step (normalized) [1]: 1
Figure 4H, Mean per step (step 1 = 100) [1]: 100
Figure 4H, Mean per step (step 1 = 100) (Nav1.7 + FGF13-GFP, Steps 2, N 10): 69.7172
Figure 4G, Mean per step (normalized) [2]: 0.9185
Figure 4H, Mean per step (step 1 = 100) [2]: 60.3376
Figure 4H, Mean per step (step 1 = 100) (Nav1.7 + FGF13-GFP, Steps 4, N 10): 59.3427
Figure 4G, Mean per step (normalized) (Nav1.7 + FGF13-GFP, Steps 5, N 10): 0.9162
Figure 4G, Mean per step (normalized) (Nav1.7 + FGF13-GFP, Steps 10, N 10): 0.8818
Figure 4G, Mean per step (normalized) (Nav1.7 + FGF13-GFP, Steps 15, N 10): 0.8857
Figure 4G, Mean per step (normalized) (Nav1.7 + FGF13-GFP, Steps 20, N 10): 0.8672
Figure 4I, Mean versus Time (ms) (Nav1.7 + FGF13-GFP, Time (ms) 2, N 7): -2.382
Figure 4I, Mean versus Time (ms) (Nav1.7 + FGF13-GFP, Time (ms) 5, N 7): -10.2316
Figure 4I, Mean versus Time (ms) (Nav1.7 + FGF13-GFP, Time (ms) 9, N 7): -21.032
Figure 4I, Mean versus Time (ms) (Nav1.7 + FGF13-GFP, Time (ms) 17, N 7): -28.22
Figure 4I, Mean versus Time (ms) (Nav1.7 + FGF13-GFP, Time (ms) 33, N 7): -35.2152
Figure 4I, Mean versus Time (ms) (Nav1.7 + FGF13-GFP, Time (ms) 65, N 7): -41.6453
Figure 4I, Mean versus Time (ms) (Nav1.7 + FGF13-GFP, Time (ms) 129, N 7): -47.08
Figure 4I, Mean versus Time (ms) (Nav1.7 + FGF13-GFP, Time (ms) 257, N 7): -58.7924
Figure 4I, Mean versus Time (ms) (Nav1.7 + FGF13-GFP, Time (ms) 513, N 7): -60.0808
Figure 4I, Mean versus Time (ms) (Nav1.7 + FGF13-GFP, Time (ms) 1025, N 7): -61.473
Figure 4I, Mean versus Time (ms) (Nav1.7 + FGF13-GFP, Time (ms) 2000, N 7): -62.66
Current density pA/pF (Figure 4D), individual cells (Nav1.7 + GFP): -42.7131 pA/pF and -116.886 pA/pF and -86.2507 pA/pF and -55.3628 pA/pF and -87.5203 pA/pF and -98.7467 pA/pF and -44.4757 pA/pF and -64.4298 pA/pF and -57.1752 pA/pF and -107.666 pA/pF and -47.813 pA/pF
Figure 4H, Mean per step (step 1 = 100) (Nav1.7 + GFP, Steps 1, N 9): 100
Figure 4G, Mean per step (normalized) (Nav1.7 + GFP, Steps 1, N 10): 1
Figure 4H, Mean per step (step 1 = 100) (Nav1.7 + GFP, Steps 2, N 9): 67.9415
Figure 4H, Mean per step (step 1 = 100) (Nav1.7 + GFP, Steps 3, N 9): 62.3546
Figure 4G, Mean per step (normalized) (Nav1.7 + GFP, Steps 3, N 10): 0.8342
Figure 4H, Mean per step (step 1 = 100) (Nav1.7 + GFP, Steps 4, N 9): 60.931
Figure 4G, Mean per step (normalized) (Nav1.7 + GFP, Steps 5, N 10): 0.7578
Figure 4G, Mean per step (normalized) (Nav1.7 + GFP, Steps 10, N 10): 0.7548
Figure 4G, Mean per step (normalized) (Nav1.7 + GFP, Steps 15, N 10): 0.7445
Figure 4G, Mean per step (normalized) (Nav1.7 + GFP, Steps 20, N 10): 0.751
Figure 4I, Mean versus Time (ms) (Nav1.7 + GFP, Time (ms) 2, N 6): -1.684
Figure 4I, Mean versus Time (ms) (Nav1.7 + GFP, Time (ms) 5, N 6): -3.032
Figure 4I, Mean versus Time (ms) (Nav1.7 + GFP, Time (ms) 9, N 6): -5.9665
Figure 4I, Mean versus Time (ms) (Nav1.7 + GFP, Time (ms) 17, N 6): -10.1843
Figure 4I, Mean versus Time (ms) (Nav1.7 + GFP, Time (ms) 33, N 6): -13.6758
Figure 4I, Mean versus Time (ms) (Nav1.7 + GFP, Time (ms) 65, N 6): -16.716
Figure 4I, Mean versus Time (ms) (Nav1.7 + GFP, Time (ms) 129, N 6): -20.6484
Figure 4I, Mean versus Time (ms) (Nav1.7 + GFP, Time (ms) 257, N 6): -23.8114
Figure 4I, Mean versus Time (ms) (Nav1.7 + GFP, Time (ms) 513, N 6): -25.3409
Figure 4I, Mean versus Time (ms) (Nav1.7 + GFP, Time (ms) 1025, N 6): -26.7193
Figure 4I, Mean versus Time (ms) (Nav1.7 + GFP, Time (ms) 2000, N 6): -29.0414
